Data as given in patent US10028992B2, “Methods of treating muscular dystrophy” (BOARD OF REGENTS OF THE NEVADA SYSTEM OF HIGHER EDUCATION …, priority 2012, dated 2018).

Tested on: α7 integrin promoter
Experiment: muscle cell-based assay: α7βgal+/− myoblasts/myotubes, LacZ reporter, β-galactosidase cleavage of FDG
Design: species or system mouse; Results in α7+/− β-galactosidase assay: scale not given here
Conditions: Myoblasts
Procedure, shortened: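 Fluorescein generated from FDG by β-galactosidase reports α7 integrin promoter activity in differentiated myoblasts from α7+/− LacZ knock-in pups. Screening hits then went to dose-response, western blotting and a myostatin counterscreen.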

Compound | Results in α7+/− β-galactosidase assay (0.5 uM) | Results in α7+/− β-galactosidase assay (1 uM) | Results in α7+/− β-galactosidase assay (5 uM) | Results in α7+/− β-galactosidase assay (10 uM) | Results in α7+/− β-galactosidase assay (20 uM) | Results in α7+/− β-galactosidase assay (40 uM)
O=c1[nH]c(CN2CCCCC2)cc2c1C1(CCCCC1)Cc1ccccc1-2 [drawing 565] | 0.03731 | −0.01272 | −0.01947 | −0.1479 | 0.1068 | −0.1465
COc1ccccc1NS(=O)(=O)c1cc(NC(=O)c2ccc(Cl)nc2)ccc1N1CCCC1 [drawing 566] | 0.1257 | 0.1127 | 0.06786 | 0.0849 | −0.1817 | −0.2311
N#C/C(=C1/C(=O)Nc2ccc(Br)cc21)c1ccccn1 [drawing 567] | 0.2021 | 0.000395 | −0.2923 | −0.4689 | −0.5478 | −0.6637
N#CC1=C2SCN(c3ccccc3)CN2C(=O)CC1c1cccs1 (stereo not drawn) [drawing 568] | −0.02125 | −0.07703 | −0.07651 | −0.05714 | 0.1121 | −0.08344
COc1ccc(C(=O)/C=C2\C(=O)Nc3ccccc32)cc1 [drawing 569] | 0.002308 | −0.1094 | −0.5146 | −0.6859 | −0.703 | −0.8556
O=C(O)c1csc(-c2cccs2)n1 [drawing 570] | 0.0287 | −0.01442 | 0.8119 | −0.08869 | 0.1022 | −0.04959
COc1cccc(C(=O)COc2ccc3ccc(=O)oc3c2)c1 [drawing 571] | 0.09281 | 0.06053 | −0.01266 | 0.02813 | 0.004164 | −0.04457
CCCS(=O)(=O)c1nc(S(=O)(=O)c2ccc(C)cc2)c(N2CCCC2)s1 [drawing 572] | 0.06463 | 0.01847 | −0.2102 | −0.5196 | −0.8221 | −0.878
OC(c1nc2cc(F)ccc2[nH]1)C(O)c1nc2cc(F)ccc2[nH]1 (stereo not drawn) [drawing 573] | 0.08093 | 0.2145 | −0.08597 | −0.1055 | 0.001076 | −0.1048
COc1ccc(OC)c(NC(=O)CN2CCC(NC(=O)c3ccccc3C)CC2)c1 [drawing 574] | 0.0132 | 0.06975 | 0.04855 | −0.0931 | 0.06823 | 0.04785
O=C(CCc1ccccc1)c1nnc(-c2ccccc2)o1 [drawing 575] | 0.0917 | 0.1045 | 0.03485 | −0.04687 | −0.02713 | −0.06265
COc1ccc(/N=N/c2ccc(N)nc2N)cc1 [drawing 576] | 0.2183 | 0.2858 | 0.06976 | 0.01151 | 0.0406 | −0.04372
N=C(NOC(=O)c1cccc(C(F)(F)F)c1)c1cnccn1 [drawing 577] | −0.05513 | 0.02871 | −0.00636 | −0.02595 | 0.07472 | 0.1346
CCOc1ccc2nc(Cl)sc2c1 [drawing 578] | −0.06751 | 0.05388 | 0.04367 | −0.03134 | 0.1725 | 0.1336
